System: 521955-158-R6-J3-PDC complex spheroid growth, % test/control
Test: Anticancer human tumor 521955-158-R6-J3-PDC patient-derived pancreatic carcinoma cell line growth inhibition [Asc]
Settings: for IC50: curve of first compound; for viability, T/C: stronger effect = lower value
Protocol: Multicellular complex tumor spheroid response to apoptosis pathway targeting inhibitors Alrizomadlin, Pelcitoclax, and Dasminapant in combination with a variety of drugs and investigational agents in selected tumor cell lines
The MDM2 inhibitor alrizomadlin, the Bcl-2/Bcl-xL inhibitor pelcitoclax, and the IAPs inhibitor dasminapant were evaluated both individually and in combination with standard of care and investigational anticancer small molecules within a complex spheroid model of solid tumors. . Complex spheroids include a stromal component modeled by human endothelial cells (HUVEC) and fibroblasts modeled by human mesenchymal stem cells (MSCs). The concentration ranges selected for each drug and investigational agent were based upon clinically achievable concentrations if the clinical Cmax of the agent was known.
Compounds. The drugs and investigational agents: alrizomadlin (APG-115; NSC831270), pelcitoclax (APG-1252; NSC835773), dasminapant (APG-1387;NSC834197), TAK-243 (NSC785004), copanlisib (NSC809693), olaparib (NSC753686), talazoparib (NSC767125), cobimetinib (NSC 768068), eltanexor (KPT-8602, NSC 794443), abemaciclib (NSC 768073), sotorasib (NSC818433), adagrasib (NSC 831453), MRTX-1133 (NSC 836407), Iadademestat (ORY1001, NSC 806812), and RMC-4630 (NSC839698), were obtained from the NCI Developmental Therapeutics Program Chemical Repository. The FDA-approved anticancer drug set is available from the Developmental Therapeutics Program at https://dtp.cancer.gov/organization/dscb/obtaining/available plates.htm. […] The stock solutions were prepared in dimethyl sulfoxide (DMSO, Sigma-Aldrich, St. Louis, MO, cat. D2650) at 800-fold the tested concentration and stored at -70 degrees C prior to their use. All drugs and investigational agents were tested over a range starting from a high concentration at or near the clinical Cmax and decreasing in half-log increments. If the clinical Cmax for an agent had not been determined, the highest concentration tested was 10 microM.
The patient-derived cancer (PDC) cell lines include five colon adenocarcinomas: 186277-243-T-J2-PDC, 616215-338-R-J1-PDC, 439559-082-T-J2-PDC, 463943-066-T-J2-PDC, and 519858-162-T-J1-PDC; three pancreatic carcinomas: 323965-272-R-J2-PDC, 521955-158-R6-J3-PDC, and 521955-158-R2-J5-PDC; two uterine sarcomas: 327498-152-R-J2-PDC and 993429-296-R-J1-PDC; two rhabdomyosarcomas: 755483-174-R-J1-PDC and 772245-204-R-J1-PDC; two soft tissue sarcomas: 126254-015-R-J1-PDC and 494315-158-R-J1-PDC; two malignant fibrous histiocytomas: 317291-083-R-J1-PDC and 596521-263-R-J1-PDC; two breast carcinomas: 171881-019-R-J1-PDC and 885512-296-R-J2-PDC; and one ovarian carcinoma: 6556581-035-R-J-PDC were obtained from the NCI PDMR, (https://pdmr.cancer.gov). The established cell lines HSSY-2 synovial sarcoma (RRID:CVCL 8719), SYO-1 synovial sarcoma (RRID:CVCL_7146), MPNST malignant peripheral neural sheath tumor were obtained from the Sloan Kettering Institute. The following established cell lines were purchased from the American Type Culture Collection (ATCC, Manassas, VA), Sor the received from the NCI repository:, PANC-1 pancreatic carcinoma (CRL-1469, RRID:CVCL_0480), OVCAR-5 ovarian carcinoma (RRID:CVCL_1628), OVCAR-8 ovarian carcinoma (RRID:CVCL_1629), , MCF-7 breast carcinoma (CRL-12584, RRID:CVCL_0031), MDA-MB-231 breast carcinoma (CRL-12532, RRID:CVCL_0062), NCI-H1876 small cell lung carcinoma (CRL-5902, RRID:CVCL_1503), NCI-H510A small cell lung carcinoma (HTB-184, RRID:CVCL_1565), NCI-H1417 (CRL-5869, RRID:CVCL_1469), and NCI-H196 small cell lung carcinoma (CRL-5823, RRID:CVCL_1509). Dr. Peter Houghton (Greehey Children's Cancer Research Institute, University of Texas Health Science Center, San Antonio, TX) provided Rh-18 rhabdomyosarcoma (RRID:CVCL_1659). Pooled donor human umbilical vein endothelial cells (HUVEC, Lonza, cat. CC-2519) and human mesenchymal stem cells (hMSC, Lonza, cat. PT-2501) were purchased from Lonza (Walkersville, MD).
Cell Culture. […]
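Also: spheroids exposed to compounds for 7 days.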
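For viability, T/C in this document: 100% = DMSO vehicle control wells.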

**Q.** What does the source list for `CCN1CCN(Cc2ccc(Nc3ncc(F)c(-c4cc(F)c5nc(C)n(C(C)C)c5c4)n3)nc2)CC1` + CNC(C)C(=O)NC1CN(S(=O)(=O)c2cccc(S(=O)(=O)N3CCC4CCC(C(=O)NC(c5ccccc5)c5ccccc5)N4C(=O)C(NC(=O)C(C)NC)C3)c2)CCC2CCC(C(=O)NC(c3ccccc3)c3ccccc3)N2C1=O?
**A.** IC50 (second compound 0.00316 µM): > 1000 nM; IC50 (second compound 0.01 µM): > 1000 nM; IC50 (second compound 0.0316 µM): > 1000 nM; IC50 (second compound 0.1 µM): > 1000 nM; IC50 (second compound 0.316 µM): > 1000 nM; IC50 (second compound 1 µM): > 1000 nM; viability, T/C (second compound 0.00316 µM, first compound 0.00316 µM): 174%; viability, T/C (second compound 0.00316 µM, first compound 0.01 µM): 141%; viability, T/C (second compound 0.00316 µM, first compound 0.0316 µM): 140%; viability, T/C (second compound 0.00316 µM, first compound 0.1 µM): 153%; viability, T/C (second compound 0.00316 µM, first compound 0.316 µM): 136%; viability, T/C (second compound 0.00316 µM, first compound 1 µM): 120%; viability, T/C (second compound 0.01 µM, first compound 0.00316 µM): 94.2%; viability, T/C (second compound 0.01 µM, first compound 0.01 µM): 76.4%; viability, T/C (second compound 0.01 µM, first compound 0.0316 µM): 86.1%; viability, T/C (second compound 0.01 µM, first compound 0.1 µM): 75.9%; viability, T/C (second compound 0.01 µM, first compound 0.316 µM): 74.9%; viability, T/C (second compound 0.01 µM, first compound 1 µM): 86.4%; viability, T/C (second compound 0.0316 µM, first compound 0.00316 µM): 103%; viability, T/C (second compound 0.0316 µM, first compound 0.01 µM): 82.1%; viability, T/C (second compound 0.0316 µM, first compound 0.0316 µM): 73.6%; viability, T/C (second compound 0.0316 µM, first compound 0.1 µM): 83.4%; viability, T/C (second compound 0.0316 µM, first compound 0.316 µM): 83.6%; viability, T/C (second compound 0.0316 µM, first compound 1 µM): 92.1%; viability, T/C (second compound 0.1 µM, first compound 0.00316 µM): 107%; viability, T/C (second compound 0.1 µM, first compound 0.01 µM): 114%; viability, T/C (second compound 0.1 µM, first compound 0.0316 µM): 102%; viability, T/C (second compound 0.1 µM, first compound 0.1 µM): 75.9%; viability, T/C (second compound 0.1 µM, first compound 0.316 µM): 88.2%; viability, T/C (second compound 0.1 µM, first compound 1 µM): 100%; viability, T/C (second compound 0.316 µM, first compound 0.00316 µM): 87.4%; viability, T/C (second compound 0.316 µM, first compound 0.01 µM): 78.8%; viability, T/C (second compound 0.316 µM, first compound 0.0316 µM): 71%; viability, T/C (second compound 0.316 µM, first compound 0.1 µM): 66.5%; viability, T/C (second compound 0.316 µM, first compound 0.316 µM): 67.1%; viability, T/C (second compound 0.316 µM, first compound 1 µM): 71%; viability, T/C (second compound 1 µM, first compound 0.00316 µM): 86.3%; viability, T/C (second compound 1 µM, first compound 0.01 µM): 81.3%; viability, T/C (second compound 1 µM, first compound 0.0316 µM): 71.8%; viability, T/C (second compound 1 µM, first compound 0.1 µM): 72.8%; viability, T/C (second compound 1 µM, first compound 0.316 µM): 77.3%; viability, T/C (second compound 1 µM, first compound 1 µM): 83.9%
